Reference: patent US20240132525A1, “BORON […], CO[…], METHODS AND USES THEREOF” (priority 2022, published 2024)
Like-named read-outs stand apart in the source and are kept apart here.

Key:
IL-31 = assay: Cytokine function assay for IL-31 in DH82 cells; assay type: cell-based, canine; settings: Canis lupus familiaris
Method: Cytokine Function Assay Protocol for IL-31
The protocol for the cytokine function assay for IL-31 is set forth below: • 1. […] After 24 hr, wash with 37° C. pre-warmed PBS (100 uL/well). • 3. Add serum-free MEM, 90 uL per well, 2 hr, 37° C. • 4. Add 10 uL 10×IL-31 (40, 10, 2.5 ug/mL) in duplicate, 5 min, 37° C. • 5. Remove medium, add 60 uL lysis buffer per well. Agitate on a plate shaker (˜350 rpm) for 10 min at RT. • 6. […] Add 6 uL Acceptor Mix, cover with aluminum foil, quickly spin at 1000 rpm, shake at 120 rpm for 2 min, then incubate at RT for 1 hr. • 8. Add 6 uL Donor Mix, cover with aluminum foil, quickly spin at 1000 rpm, shake at 120 rpm for 2 min, then incubate at RT for 1 hr. • 9. Measure the fluorescence using EnVision™ plate reader.

JAK1 = JAK1 (Homo sapiens (Human), UniProt P23458); assay: Biochemical kinase assay (33P-ATP filter-binding), JAK1
Sequence of JAK1 (P23458 whole entry, species assumed): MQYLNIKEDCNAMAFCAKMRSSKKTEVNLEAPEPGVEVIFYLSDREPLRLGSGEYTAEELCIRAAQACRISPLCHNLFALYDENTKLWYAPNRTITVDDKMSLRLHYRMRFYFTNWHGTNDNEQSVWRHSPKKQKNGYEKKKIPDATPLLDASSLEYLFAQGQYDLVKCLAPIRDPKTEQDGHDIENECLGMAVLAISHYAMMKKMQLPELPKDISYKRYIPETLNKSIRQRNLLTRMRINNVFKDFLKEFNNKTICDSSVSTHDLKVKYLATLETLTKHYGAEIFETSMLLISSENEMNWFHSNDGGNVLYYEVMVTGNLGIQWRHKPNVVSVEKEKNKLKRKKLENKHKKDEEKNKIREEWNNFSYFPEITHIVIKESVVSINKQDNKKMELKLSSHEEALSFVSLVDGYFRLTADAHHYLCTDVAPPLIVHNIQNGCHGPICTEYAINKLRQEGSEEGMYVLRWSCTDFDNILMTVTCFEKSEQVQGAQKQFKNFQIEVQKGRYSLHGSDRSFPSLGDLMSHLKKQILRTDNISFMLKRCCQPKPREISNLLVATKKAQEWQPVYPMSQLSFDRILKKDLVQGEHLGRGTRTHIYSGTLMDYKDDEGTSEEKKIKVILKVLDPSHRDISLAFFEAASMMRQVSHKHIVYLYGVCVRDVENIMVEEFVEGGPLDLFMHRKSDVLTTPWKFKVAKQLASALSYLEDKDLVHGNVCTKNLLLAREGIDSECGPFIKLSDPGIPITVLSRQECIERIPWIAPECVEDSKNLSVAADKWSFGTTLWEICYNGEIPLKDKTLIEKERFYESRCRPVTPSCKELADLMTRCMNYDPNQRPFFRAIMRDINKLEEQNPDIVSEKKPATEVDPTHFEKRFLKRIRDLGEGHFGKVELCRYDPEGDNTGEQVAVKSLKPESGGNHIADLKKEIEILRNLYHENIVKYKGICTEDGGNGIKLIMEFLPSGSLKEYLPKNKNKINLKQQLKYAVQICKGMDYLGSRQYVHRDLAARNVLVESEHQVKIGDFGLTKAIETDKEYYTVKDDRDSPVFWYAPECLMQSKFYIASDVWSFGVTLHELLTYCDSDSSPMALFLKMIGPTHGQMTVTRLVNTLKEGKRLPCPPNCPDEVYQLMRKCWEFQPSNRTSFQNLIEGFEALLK
Description: (§1) Biochemical Kinase Assay Protocol (JAK)
(§2) Reaction Procedure: • 1. […] Detected kinase activity by filter-binding method.

[1] = Dog LM (liver microsome) assay; assay type: in vitro ADME; settings: Table 3a; predicted clearance as percent of liver blood flow, 1 μM, 1 mg/ml microsomal protein
In short: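 Pooled Beagle liver microsomes (1 mg/ml protein), compound 1 μM, Tris pH 7.6 with 5 mM MgCl2, 37 °C, started with 1 mM NADPH; parent loss by LC-MS/MS over several time points.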

GM-CSF/pSTAT5 = assay: Cytokine function assay GM-CSF/pSTAT5 in lysed whole blood cells; assay type: cell-based; settings: Whole blood cell, read-out: IC50 GM-CSF
Method: (§3) Cytokine Function Assay Protocols for IL-4/pSTAT6 and GM-CSF/pSTAT5
GM-CSF/pSTAT5: • Whole blood from a healthy donor was lysed to remove red blood cells. Cells were plated onto a 96 well plate. Compound was added and incubated for 1 hour (at 37° C.). After 1 hour, cells were stimulated with GM-CSF for 15 minutes. Cells were fixed and stained with anti-pSTAT5 antibody. After staining, cells were read on a Beckman-Coulter CytoFLEX.

IL-4/pSTAT6 = assay: Cytokine function assay IL-4/pSTAT6 in PBMC; assay type: cell-based; settings: PBMC, read-out: IC50 IL-4, Table 3a
Method: as §3
IL-4/pSTAT6: • PBMC from a healthy donor was plated onto a 96 w plate. Compound was added and incubated for 1 hour (at 37° C.). After 1 hour, cells were stimulated with IL-4 for 15 minutes. Cells were fixed and stained with anti-pSTAT6 antibody. After staining, cells were read on a Beckman-Coulter CytoFLEX.

JAK2 = JAK2 (Homo sapiens (Human), UniProt O60674); assay: Biochemical kinase assay (33P-ATP filter-binding), JAK2
Sequence of JAK2 (O60674 whole entry, species assumed): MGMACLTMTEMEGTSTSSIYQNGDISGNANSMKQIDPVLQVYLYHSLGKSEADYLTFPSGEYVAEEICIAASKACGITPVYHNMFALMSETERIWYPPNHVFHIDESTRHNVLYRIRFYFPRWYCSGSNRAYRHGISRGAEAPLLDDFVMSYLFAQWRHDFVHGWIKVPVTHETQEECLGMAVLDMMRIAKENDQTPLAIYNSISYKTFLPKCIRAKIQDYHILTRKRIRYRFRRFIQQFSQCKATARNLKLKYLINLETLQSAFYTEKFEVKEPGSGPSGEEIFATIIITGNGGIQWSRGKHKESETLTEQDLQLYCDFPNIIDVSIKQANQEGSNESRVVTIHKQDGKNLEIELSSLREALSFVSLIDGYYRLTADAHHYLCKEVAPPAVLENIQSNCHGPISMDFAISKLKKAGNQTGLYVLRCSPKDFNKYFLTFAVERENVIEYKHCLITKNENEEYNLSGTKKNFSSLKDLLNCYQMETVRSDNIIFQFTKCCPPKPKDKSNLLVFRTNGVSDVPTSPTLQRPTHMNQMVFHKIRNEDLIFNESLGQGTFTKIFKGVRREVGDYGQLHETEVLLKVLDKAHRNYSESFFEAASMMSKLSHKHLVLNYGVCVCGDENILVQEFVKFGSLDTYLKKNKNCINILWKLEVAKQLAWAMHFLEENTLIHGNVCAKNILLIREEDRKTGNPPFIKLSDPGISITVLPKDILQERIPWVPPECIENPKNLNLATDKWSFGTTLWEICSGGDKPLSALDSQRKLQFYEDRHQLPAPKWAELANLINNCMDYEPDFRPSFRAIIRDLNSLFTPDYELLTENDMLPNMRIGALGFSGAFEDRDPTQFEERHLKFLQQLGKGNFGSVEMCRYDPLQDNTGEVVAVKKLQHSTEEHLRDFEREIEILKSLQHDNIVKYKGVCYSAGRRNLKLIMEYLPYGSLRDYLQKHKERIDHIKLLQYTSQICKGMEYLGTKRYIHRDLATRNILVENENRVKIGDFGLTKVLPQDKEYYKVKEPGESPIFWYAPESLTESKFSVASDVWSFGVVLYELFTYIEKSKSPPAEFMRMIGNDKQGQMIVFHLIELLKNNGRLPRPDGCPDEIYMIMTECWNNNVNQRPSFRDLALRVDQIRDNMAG
Description: as §1, §2

PDE4B = PDE4B (Homo sapiens (Human), UniProt Q07343); assay: PDE4B inhibition; assay type: biochemical; settings: Table 3a
Sequence of PDE4B (Q07343 whole entry, species assumed): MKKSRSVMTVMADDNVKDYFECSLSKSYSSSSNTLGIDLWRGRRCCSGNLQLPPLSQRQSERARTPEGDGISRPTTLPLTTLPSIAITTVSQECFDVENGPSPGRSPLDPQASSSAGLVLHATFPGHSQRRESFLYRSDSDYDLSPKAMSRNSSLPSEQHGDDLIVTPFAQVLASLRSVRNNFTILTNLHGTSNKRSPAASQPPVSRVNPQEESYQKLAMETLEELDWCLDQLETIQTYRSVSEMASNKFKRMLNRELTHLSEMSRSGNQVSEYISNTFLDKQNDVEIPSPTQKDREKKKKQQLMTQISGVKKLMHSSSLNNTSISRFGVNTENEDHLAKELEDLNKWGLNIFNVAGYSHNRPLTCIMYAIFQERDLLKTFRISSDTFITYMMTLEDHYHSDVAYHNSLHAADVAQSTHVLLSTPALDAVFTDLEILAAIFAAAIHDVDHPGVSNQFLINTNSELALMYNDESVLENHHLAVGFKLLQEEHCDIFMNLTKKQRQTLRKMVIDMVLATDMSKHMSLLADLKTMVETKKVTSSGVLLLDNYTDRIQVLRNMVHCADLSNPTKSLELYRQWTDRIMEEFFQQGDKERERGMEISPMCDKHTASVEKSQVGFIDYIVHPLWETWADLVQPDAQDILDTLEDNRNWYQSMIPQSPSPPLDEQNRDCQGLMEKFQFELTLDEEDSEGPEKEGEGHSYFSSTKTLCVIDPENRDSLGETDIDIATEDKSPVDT

[2] = Pharmacokinetic profile after single oral administration in Beagle dogs; assay type: in vivo; settings: male Beagle dogs, single oral dose about 1.0 mg/kg, fasted
Method: Summary of Pharmacokinetic (PK) profile
Three healthy male Beagle dogs were studied to determine a representative pharmacokinetic (PK) profile following a single oral administration of 1.0 mg/kg to each dog in a fasted state. Blood samples were collected at pre-dose, 0.25, 0.5, 1, 2, 4, 8, 24; 32, and 48 h post dose following oral administration (1 mg/mL in 10% Propylene glycol (PG), 45% PEG400, 7% Cremophor EL, 38% 50 mM citrate buffer pH 3.0 suspension or clear solution).

[3] = DH82, Table 3a, read-out: IC50 IL-31

| SMILES | IC50 (IL-31; [3]) | IC50 (JAK1; Table 3a, read-out: IC50 JAK1) | Dog LM QH [1] | IC50 (GM-CSF/pSTAT5) | IC50 (IL-4/pSTAT6) | IC50 (JAK2; Table 3a, read-out: IC50 JAK2) | IC50 (PDE4B) | IC50 (IL-31; DH82, read-out: IC50 IL-31) | IC50 (JAK1; IC50 JAK1, Table 3a) | IC50 (JAK2; IC50 JAK2, Table 3a) | concentration at 48 h ([2]; dog, in vivo, read-out: Mean Clast) | Median Tlast [2] |
| --- | --- | --- | --- | --- | --- | --- | --- | --- | --- | --- | --- | --- |
| Cc1cnc(Nc2cc(F)c3c(c2)COB3O)nc1NC1COCCC1C#N (racemic) [Example 029, (trans)-3-((2-((7-fluoro-1-hydroxy-1,3-dihydrobenzo[c][1,2]oxaborol-5-yl)amino)-5-methylpyrimidin-4-yl)amino)tetrahydro-2H-pyran-4-carbonitrile] | 49.5 nM | 0.2 nM | <19.9% | 2240 nM | 58.3 nM | 9.8 nM | 978 nM |  |  |  |  |  |
| Cc1cnc(Nc2cc(C)c3c(c2)COB3O)nc1N[C@@H]1CCC[C@H]1C#N (relative stereo) [Example 002, (trans)-2-((2-((1-hydroxy-7-methyl-1,3-dihydrobenzo[c][1,2]oxaborol-5-yl)amino)-5-methylpyrimidin-4-yl)amino)cyclopentane-1-carbonitrile] | 23.9 nM | 0.9 nM | <19.9% | 2100 nM | 94.8 nM | 12.1 nM | 832 nM |  |  |  |  |  |
| Cc1cnc(Nc2ccc3c(c2)C(C)(C)OB3O)nc1N[C@@H]1COCC[C@H]1C#N (relative stereo) [Example 032, (trans)-3-[[2-[(1-hydroxy-3,3-dimethyl-2,1-benzoxaborol-5-yl)amino]-5-methyl-pyrimidin-4-yl]amino]tetrahydropyran-4-carbonitrile] |  | 0.6 nM | 42.0% | 901 nM | 66.7 nM | 3.3 nM | 762 nM | 51 nM |  |  |  |  |
| Cc1cnc(Nc2cc(Cl)c3c(c2)COB3O)nc1N[C@@H]1CCC[C@H]1C#N (single isomer, unassigned) [Example 003a, (trans)-2-((2-((7-chloro-1-hydroxy-1,3-dihydrobenzo[c][1,2]oxaborol-5-yl)amino)-5-methylpyrimidin-4-yl)amino)cyclopentane-1-carbonitrile] | 9.2 nM | 0.7 nM | <19.9% | 2220 nM | 93.3 nM | 3.7 nM |  |  |  |  |  |  |
| Cc1cnc(Nc2cc(Cl)c3c(c2)COB3O)nc1NC1CCCC[C@@H]1C#N (single isomer, unassigned) [Example 010a, (trans)-2-[[2-[(7-chloro-1-hydroxy-3H-2,1-benzoxaborol-5-yl)amino]-5-methyl-pyrimidin-4-yl]amino]cyclohexane-1-carbonitrile] | 12.7 nM | 0.6 nM | <19.9% | 469 nM | 37.9 nM | 4 nM |  |  |  |  |  |  |
| Cc1cnc(Nc2cc3c(c(C(F)(F)F)c2)B(O)OC3)nc1N[C@H]1CCCC[C@@H]1C#N (single isomer, unassigned) [Example 011a, (trans)-2-((2-((1-hydroxy-7-(trifluoromethyl)-1,3-dihydrobenzo[c][1,2]oxaborol-5-yl)amino)-5-methylpyrimidin-4-yl)amino)cyclohexane-1-carbonitrile] | 107 nM | 0.4 nM | <19.9% | 1480 nM | 151 nM | 11.7 nM |  |  |  |  |  |  |
| Cc1cnc(Nc2ccc3c(c2)COB3O)nc1N[C@@H]1COCC[C@H]1C#N (single isomer, unassigned) [Example 026a, (trans)-3-((2-((1-hydroxy-1,3-dihydrobenzo[c][1,2]oxaborol-5-yl)amino)-5-methylpyrimidin-4-yl)amino)tetrahydro-2H-pyran-4-carbonitrile] | 21.6 nM |  | <19.9% | 4240 nM | 49.7 nM |  | 972 nM |  | 0.4 nM | 1.6 nM |  |  |
| Cc1cnc(Nc2cc(F)c3c(c2)COB3O)nc1N[C@@H]1COCC[C@H]1C#N (single isomer, unassigned) [Example 029a, (trans)-3-[[2-[(7-fluoro-1-hydroxy-3H-2,1-benzoxaborol-5-yl)amino]-5-methyl-pyrimidin-4-yl]amino]tetrahydropyran-4-carbonitrile] | 19.8 nM | 0.02 nM | <19.9% | 1170 nM | 48.8 nM | 3.7 nM | 381 nM |  |  |  |  |  |
| Cc1cnc(Nc2cc(Cl)c3c(c2)COB3O)nc1N[C@@H]1COCC[C@H]1C#N (single isomer, unassigned) [Example 031b, (trans)-3-((2-((7-chloro-1-hydroxy-1,3-dihydrobenzo[c][1,2]oxaborol-5-yl)amino)-5-methylpyrimidin-4-yl)amino)tetrahydro-2H-pyran-4-carbonitrile] |  |  | <19.9% |  |  |  |  |  |  |  | 7.98 ng/mL | 48 h |
| Cc1cc(Nc2ncc(Cl)c(N[C@H]3COCC[C@@H]3C#N)n2)cc2c1B(O)OC2 (single isomer, unassigned) [Example 041a, (trans)-3-[[5-chloro-2-[(1-hydroxy-7-methyl-3H-2,1-benzoxaborol-5-yl)amino]pyrimidin-4-yl]amino]tetrahydropyran-4-carbonitrile] | 40 nM |  | <19.9% | > 10000 nM | 47 nM |  |  |  | 0.8 nM | 3.1 nM |  |  |
| N#C[C@H]1CCOC[C@@H]1Nc1nc(Nc2cc3c(c(C(F)(F)F)c2)B(O)OC3)ncc1Cl (single isomer, unassigned) [Example 042a, (trans)-3-((5-chloro-2-((1-hydroxy-7-(trifluoromethyl)-1,3-dihydrobenzo[c][1,2]oxaborol-5-yl)amino)pyrimidin-4-yl)amino)tetrahydro-2H-pyran-4-carbonitrile] | 9.7 nM | 0.4 nM | <19.9% | 2970 nM | 148 nM | 7.3 nM |  |  |  |  |  |  |
| Cc1cnc(Nc2cc3c(c(C(F)(F)F)c2)B(O)OC3)nc1N[C@H]1COC[C@@H]1C#N (single isomer, unassigned) [Example 043a, (trans)-4-[[2-[[1-hydroxy-7-(trifluoromethyl)-3H-2,1-benzoxaborol-5-yl]amino]-5-methyl-pyrimidin-4-yl]amino]tetrahydrofuran-3-carbonitrile] | 45.4 nM | 0.9 nM | <19.9% | 4140 nM | 267 nM | 23.7 nM |  |  |  |  |  |  |
| Cc1cnc(Nc2cc(Cl)c3c(c2)COB3O)nc1N[C@H]1CCCOC1 [Example 030b, (S)-7-chloro-5-((5-methyl-4-((tetrahydro-2H-pyran-3-yl)amino)pyrimidin-2-yl)amino)benzo[c][1,2]oxaborol-1(3H)-ol] |  | 4.7 nM | <19.9% | 4480 nM | 193 nM | 91.9 nM |  | 25.8 nM |  |  |  |  |
| N#CC1CCOCC1Nc1nc(Nc2cc(F)c3c(c2)COB3O)ncc1Cl (stereo not drawn) [Example 050, 3-((5-chloro-2-((7-fluoro-1-hydroxy-1,3-dihydrobenzo[c][1,2]oxaborol-5-yl)amino)pyrimidin-4-yl)amino)tetrahydro-2H-pyran-4-carbonitrile] | 23.9 nM | 0.2 nM | <19.9% | 2100 nM | 94.8 nM | 1.2 nM | 832 nM |  |  |  |  |  |
